Target: T1, human mGluR5d (Homo sapiens, UniProt P41594)
T1 construct: expressed in transfected cells
Assay: FLIPR assay of [Ca2+]i mobilization (Group I receptor antagonist activity)
Type: cell-based
Settings: cells expressing human mGluR5d; antagonist block of agonist challenge
Method: For FLIPR analysis, cells expressing human mGluR5d as described in WO97/05252 were seeded on collagen coated clear bottom 96-well plates with black sides and analysis of [Ca^2+]i mobilization was done 24 h after seeding.
FLIPR experiments were done using a laser setting of 0.800 W and a 0.4 second CCD camera shutter speed. Each FLIPR experiment was initiated with 160 μl of buffer present in each well of the cell plate. After each addition of the compound, the fluorescence signal was sampled 50 times at 1 second intervals followed by 3 samples at 5 second intervals. Responses were measured as the peak height of the response within the sample period. EC50 and IC50 determinations were made from data obtained from 8-point concentration response curves (CRC) performed in duplicate. Agonist CRC were generated by scaling all responses to the maximal response observed for the plate. […]
FLIPR experiments were done using a laser setting of 0.800 W and a 0.4 second CCD camera shutter speed with excitation and emission wavelengths of 488 nm and 562 nm, respectively. […] After each addition the fluorescence signal was sampled 50 times at 1 second intervals followed by 3 samples at 5 second intervals. Responses were measured as the peak height of the response within the sample period. […]

T1 sequence (P41594 21-942 isoform P41594-3 limits assumed): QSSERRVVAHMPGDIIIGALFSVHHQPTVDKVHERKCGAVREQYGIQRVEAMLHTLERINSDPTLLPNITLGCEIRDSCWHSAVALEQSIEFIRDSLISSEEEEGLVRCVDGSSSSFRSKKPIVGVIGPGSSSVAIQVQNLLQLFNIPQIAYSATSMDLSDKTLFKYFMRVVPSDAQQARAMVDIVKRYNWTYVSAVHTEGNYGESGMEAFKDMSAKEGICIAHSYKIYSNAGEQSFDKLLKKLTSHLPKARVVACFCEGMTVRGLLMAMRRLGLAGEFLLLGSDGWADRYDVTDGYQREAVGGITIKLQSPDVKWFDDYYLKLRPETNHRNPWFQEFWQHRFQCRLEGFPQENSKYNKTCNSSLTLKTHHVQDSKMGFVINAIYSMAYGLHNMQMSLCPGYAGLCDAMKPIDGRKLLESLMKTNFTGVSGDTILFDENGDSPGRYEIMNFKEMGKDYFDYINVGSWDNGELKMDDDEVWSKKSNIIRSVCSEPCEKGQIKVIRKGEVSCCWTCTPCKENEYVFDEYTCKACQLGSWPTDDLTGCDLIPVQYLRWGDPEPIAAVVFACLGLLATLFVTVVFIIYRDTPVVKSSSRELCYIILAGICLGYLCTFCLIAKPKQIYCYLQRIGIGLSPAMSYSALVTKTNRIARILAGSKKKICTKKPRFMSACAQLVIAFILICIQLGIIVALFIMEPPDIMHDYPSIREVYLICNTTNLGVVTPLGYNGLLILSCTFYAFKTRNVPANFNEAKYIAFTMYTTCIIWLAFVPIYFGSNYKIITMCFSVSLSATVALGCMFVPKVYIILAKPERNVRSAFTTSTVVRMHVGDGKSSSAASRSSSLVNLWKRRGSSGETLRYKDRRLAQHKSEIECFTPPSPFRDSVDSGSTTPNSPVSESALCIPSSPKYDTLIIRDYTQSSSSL

SMILES | IC50 [nM]
Cn1c(-c2ccc(OC(F)F)cc2)nnc1N1CCOCC1c1nc(-c2cccc(Cl)c2)no1 (centres unmarked) [3-[3-(3-Chloro-phenyl)-[1,2,4]oxadiazol-5-yl]-4-[5-(4-difluoromethoxy-phenyl)-4-methyl-4H-[1,2,4]triazol-3-yl]-morpholine] | 199
Cn1c(-c2ccncc2)nnc1N1CCCCC1c1nnn(-c2cccc(Cl)c2)n1 (centres unmarked) [4-(5-{2-[2-(3-chlorophenyl)-2H-tetrazol-5-yl]piperidin-1-yl}-4-methyl-4H-1,2,4-triazol-3-yl)pyridine] | 40

Reference: patent US20060025414A1, “Poly-heterocyclic compounds and their use as metabotropic glutamate receptor antagonists” (AstraZeneca AB, priority 2004, published 2006)
